Results as given in PubChem BioAssay AID328 (DTP/NCI, 2004).
Several values for one entry are separate records, joined by “and”; a condition that tells them apart may be missing. Identical values can stand only once. Inconclusive results and toxic doses are left out.

System: BDF1 mice, P388 leukemia ip, median survival T/C
Assay: NCI In Vivo Anticancer Drug Screen. Data for tumor model P388 Leukemia (intraperitoneal) in B6D2F1 (BDF1) mice
Conditions: endpoint: median survival time, higher = longer survival
In short: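 Steps: implant the tumour, treat one group with compound and another with vehicle, record survival, then divide treated by control.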

[1] = dose: 100.0 mg/kg/injection, schedule: Q04DX003 (ip), vehicle: saline sonified
[2] = dose: 6.25 mg/kg/injection, schedule: Q04DX003 (ip), vehicle: saline with Tween-80
[3] = dose: 12.5 mg/kg/injection, schedule: Q04DX003 (ip), vehicle: saline with Tween-80
[4] = dose: 25.0 mg/kg/injection, schedule: Q01DX009 (ip), vehicle: saline with Tween-80
[5] = dose: 50.0 mg/kg/injection, schedule: Q01DX009 (ip), vehicle: saline with Tween-80
[6] = dose: 100.0 mg/kg/injection, schedule: Q01DX009 (ip), vehicle: saline with Tween-80
[7] = dose: 200.0 mg/kg/injection, schedule: Q01DX009 (ip), vehicle: saline with Tween-80
[8] = dose: 400.0 mg/kg/injection, schedule: Q04DX003 (ip), vehicle: saline with Tween-80
[9] = dose: 100.0 mg/kg/injection, schedule: Q04DX003 (ip), vehicle: saline with Tween-80
[10] = dose: 200.0 mg/kg/injection, schedule: Q04DX003 (ip), vehicle: saline with Tween-80

In the case of C[C@@H]1C[C@H]2[C@@H]3CCC4=CC(=O)C=C[C@]4(C)[C@@]3(F)[C@@H](O)C[C@]2(C)[C@@]1(O)C(=O)CO, the T/C (dose: 6.25 mg/kg/injection, schedule: Q04DX003 (ip), vehicle: saline) is reported as 104 % of control, the T/C (dose: 12.5 mg/kg/injection, schedule: Q04DX003 (ip), vehicle: saline) is reported as 109 % of control and the T/C (dose: 16.5 mg/kg/injection, schedule: Q04DX003 (ip), vehicle: saline) is reported as 112 % of control and 122 % of control. For the same molecule, the T/C (dose: 25.0 mg/kg/injection, schedule: Q04DX003 (ip), vehicle: saline sonified) was 110 % of control, the T/C (dose: 25.0 mg/kg/injection, schedule: Q04DX003 (ip), vehicle: saline) was 100 % of control and 113 % of control and the T/C (dose: 37.5 mg/kg/injection, schedule: Q04DX003 (ip), vehicle: saline) was 109 % of control and 112 % of control. For the same molecule, the T/C (dose: 50.0 mg/kg/injection, schedule: Q04DX003 (ip), vehicle: saline sonified) was 110 % of control, the T/C (dose: 50.0 mg/kg/injection, schedule: Q04DX003 (ip), vehicle: saline) was 90 % of control and the T/C (dose: 55.0 mg/kg/injection, schedule: Q04DX003 (ip), vehicle: saline) was 110 % of control. The T/C (dose: 85.0 mg/kg/injection, schedule: Q04DX003 (ip), vehicle: saline) was 119 % of control and the T/C [1] was 100 % of control.

In the case of CN(C)c1ccc(/C=C2\C=Cc3ccccc32)cc1, the T/C (dose: 3.12 mg/kg/injection, schedule: Q04DX003 (ip), vehicle: saline with Tween-80) is reported as 90 % of control, the T/C [2] is reported as 90 % of control and the T/C [3] is reported as 92 % of control and 100 % of control. For the same molecule, the T/C [4] was 100 % of control, the T/C [5] was 103 % of control and the T/C [6] was 96 % of control and 100 % of control. For the same molecule, the T/C [7] was 90 % of control and the T/C [8] was 96 % of control.

With NCc1cc(=O)[nH]o1 the T/C (dose: 2.5 mg/kg/injection, schedule: Q01DX005 (ip), vehicle: saline) was 98 % of control and the T/C (dose: 5.0 mg/kg/injection, schedule: Q01DX005 (ip), vehicle: saline) was 106 % of control.

With Cc1onc(-c2ccccc2)c1NC(=O)OCc1ccc(-c2cc(C(F)(F)F)cc(C(F)(F)F)c2)o1 the T/C [5] was 97 % of control, the T/C [6] was 99 % of control and the T/C [7] was 99 % of control.

For CCOC(=O)C(Br)C(Br)C(=O)OCC (stereo unspecified), the T/C [5] was 89 % of control and the T/C [6] was 104 % of control.

COC1(F)C2(Cl)C=C(c3ccccc3)C1(Cl)C(Cl)=C2Cl (stereo unspecified) was tested, and the T/C (dose: 100.0 mg/kg/injection, schedule: Q04DX002 (ip), vehicle: saline with Tween-80) was 101 % of control, the T/C (dose: 200.0 mg/kg/injection, schedule: Q04DX002 (ip), vehicle: saline with Tween-80) was 111 % of control and the T/C (dose: 400.0 mg/kg/injection, schedule: Q04DX002 (ip), vehicle: saline with Tween-80) was 100 % of control.

C[C@@H]1CC2=CC(=O)CC[C@@H]2[C@H]2CC[C@@]3(C)[C@@H](CC[C@]3(C)O)[C@@H]21 was tested, and the T/C [6] was 104 % of control, the T/C [9] was 100 % of control and the T/C [7] was 90 % of control.

In the case of O=C1NC(=O)C(c2ccc(Cl)cc2)(c2ccccc2Cl)N1 (stereo unspecified), the T/C [1] is reported as 100 % of control, the T/C (dose: 200.0 mg/kg/injection, schedule: Q04DX003 (ip), vehicle: saline sonified) is reported as 95 % of control and the T/C (dose: 400.0 mg/kg/injection, schedule: Q04DX003 (ip), vehicle: saline sonified) is reported as 100 % of control.

In the case of COc1cccc2c1C(=O)c1c(O)c3c(c(O)c1C2=O)C[C@@](O)(C(C)O)C[C@@H]3OC1CC(N(Cc2ccccc2)Cc2ccccc2)C(O)C(C)O1 (stereo partly specified), the T/C (dose: 2.5 mg/kg/injection, schedule: Q01DX009 (ip), vehicle: water) is reported as 108 % of control, the T/C (dose: 5.0 mg/kg/injection, schedule: Q01DX009 (ip), vehicle: water) is reported as 112 % of control and the T/C (dose: 20.0 mg/kg/injection, schedule: Q01DX009 (ip), vehicle: water) is reported as 166 % of control. For the same molecule, the T/C (dose: 40.0 mg/kg/injection, schedule: Q01DX009 (ip), vehicle: water) was 229 % of control.

For O=C1CCC(C(=O)N/N=C\C=N/NC(=O)C2CCC(=O)N2)N1 (stereo unspecified), the T/C (dose: 20.0 mg/kg/injection, schedule: Q01DX009 (ip), vehicle: saline with Tween-80) was 91 % of control.

In the case of c1cc2cccc3c2c(c1)c1sc2c4cccc5cccc(c54)c2c31, the T/C [9] is reported as 91 % of control and the T/C [10] is reported as 100 % of control.

With CCOC(=O)CCCc1ccccc1 the T/C [9] was 113 % of control, the T/C [10] was 100 % of control and the T/C [8] was 100 % of control.

With O=C(O)c1occ(Cl)c1Cl the T/C (dose: 0.78 mg/kg/injection, schedule: Q01DX009 (ip), vehicle: water) was 100 % of control, the T/C (dose: 1.56 mg/kg/injection, schedule: Q01DX009 (ip), vehicle: water) was 98 % of control and the T/C (dose: 3.12 mg/kg/injection, schedule: Q01DX009 (ip), vehicle: water) was 97 % of control. The T/C (dose: 6.25 mg/kg/injection, schedule: Q01DX009 (ip), vehicle: water) was 97 % of control, the T/C (dose: 12.5 mg/kg/injection, schedule: Q01DX009 (ip), vehicle: water) was 94 % of control and the T/C (dose: 25.0 mg/kg/injection, schedule: Q01DX009 (ip), vehicle: water) was 94 % of control. For the same molecule, the T/C (dose: 50.0 mg/kg/injection, schedule: Q01DX009 (ip), vehicle: water) was 106 % of control, the T/C (dose: 50.0 mg/kg/injection, schedule: Q04DX003 (ip), vehicle: water) was 96 % of control and the T/C (dose: 100.0 mg/kg/injection, schedule: Q04DX003 (ip), vehicle: water) was 104 % of control. For the same molecule, the T/C (dose: 200.0 mg/kg/injection, schedule: Q04DX003 (ip), vehicle: water) was 119 % of control.

In the case of NN(c1cccc(C(F)(F)F)c1)c1ccccn1, the T/C (dose: 12.5 mg/kg/injection, schedule: Q01DX009 (ip), vehicle: saline) is reported as 108 % of control, the T/C (dose: 25.0 mg/kg/injection, schedule: Q01DX009 (ip), vehicle: saline) is reported as 106 % of control and the T/C (dose: 50.0 mg/kg/injection, schedule: Q01DX009 (ip), vehicle: saline) is reported as 115 % of control.

For CCOC(=O)/C(C#N)=C/C=C1\C=CC=CN1C, the T/C [5] was 90 % of control.

In the case of C[P+](C)(c1ccccc1)c1ccccc1, the T/C [2] is reported as 100 % of control and the T/C [3] is reported as 104 % of control.

For C=C(COc1ccc(Cl)cc1)COc1ccc(Cl)cc1, the T/C (dose: 50.0 mg/kg/injection, schedule: Q01DX001 (ip), vehicle: other) was 103 % of control, the T/C (dose: 50.0 mg/kg/injection, schedule: Q04DX003 (ip), vehicle: other) was 100 % of control and the T/C (dose: 100.0 mg/kg/injection, schedule: Q01DX001 (ip), vehicle: other) was 100 % of control. The T/C (dose: 100.0 mg/kg/injection, schedule: Q04DX003 (ip), vehicle: other) was 91 % of control, the T/C (dose: 200.0 mg/kg/injection, schedule: Q01DX001 (ip), vehicle: other) was 94 % of control and the T/C (dose: 200.0 mg/kg/injection, schedule: Q04DX003 (ip), vehicle: other) was 101 % of control. For the same molecule, the T/C (dose: 400.0 mg/kg/injection, schedule: Q01DX001 (ip), vehicle: other) was 102 % of control and the T/C (dose: 400.0 mg/kg/injection, schedule: Q04DX003 (ip), vehicle: other) was 93 % of control.

CC(C)NCc1ccccc1Sc1ccccc1CNC(C)C was tested, and the T/C (dose: 100.0 mg/kg/injection, schedule: Q01DX001 (ip), vehicle: saline with Tween-80) was 103 % of control and the T/C (dose: 100.0 mg/kg/injection, schedule: Q04DX002 (ip), vehicle: saline) was 103 % of control.

For CN(c1ccccc1)S(=O)(=O)c1ccccc1, the T/C [9] was 95 % of control.

With Cc1nnc2sc3c(Cl)c4nn5c(C)nnc5sc4c(Cl)c3nn12 the T/C [5] was 92 % of control and the T/C [6] was 100 % of control.

In the case of CS/C(N)=N\S(=O)(=O)c1ccc(NC(C)=O)cc1, the T/C [9] is reported as 95 % of control, the T/C [10] is reported as 119 % of control and the T/C [8] is reported as 100 % of control.

For CC(=O)OCC1OC(OC2=C(CC=C(Cl)Cl)C(=O)c3ccccc3C2=O)C(OC(C)=O)C(OC(C)=O)C1OC(C)=O (stereo unspecified), the T/C [4] was 100 % of control, the T/C [5] was 100 % of control and 104 % of control and the T/C [6] was 100 % of control and 102 % of control. The T/C [7] was 117 % of control.

In the case of CCCCCCCCCCCCOc1ccc(C=O)cc1OC, the T/C (dose: 100.0 mg/kg/injection, schedule: Q01DX001 (ip), vehicle: Klucel (hydroxypropylcellulose) (HPC)) is reported as 100 % of control, the T/C (dose: 200.0 mg/kg/injection, schedule: Q01DX001 (ip), vehicle: Klucel (hydroxypropylcellulose) (HPC)) is reported as 90 % of control and the T/C (dose: 400.0 mg/kg/injection, schedule: Q01DX001 (ip), vehicle: Klucel (hydroxypropylcellulose) (HPC)) is reported as 100 % of control.

With C[N+](C)(C)CCO the T/C (dose: 100.0 mg/kg/injection, schedule: Q04DX003 (ip), vehicle: saline) was 100 % of control, the T/C (dose: 200.0 mg/kg/injection, schedule: Q04DX003 (ip), vehicle: saline) was 105 % of control and the T/C (dose: 400.0 mg/kg/injection, schedule: Q04DX003 (ip), vehicle: saline) was 110 % of control.

In the case of CCCCOCN(COCCCC)C(C)Cc1ccccc1 (stereo unspecified), the T/C [5] is reported as 122 % of control.

With O=CNc1ccc(O)cc1 the T/C [9] was 104 % of control, the T/C [10] was 104 % of control and the T/C [8] was 100 % of control.
